One experiment relates to V79. As to the kind of experiment: Cytotoxicity against Chinese hamster lung fibroblasts (V79 cells) was determined by a clonogenic assay (colonies containing >50 cells were counted and surviving fractions (SF) calculated after 2 hr incubation). The class given is functional, Cricetulus griseus.
Turning to `O=C(O)Cc1c[nH]c2ccc(Cl)cc12`, the Surviving fraction is recorded as 0.003.

For `Cc1[nH]c2ccccc2c1CC(=O)O`, the Surviving fraction is 0.004. On to `O=C(O)Cc1c[nH]c2ccc(-c3ccccc3)cc12`, for which the Surviving fraction is on record as 1.

Consider `Cn1cc(CC(=O)O)c2cc(F)ccc21`, for which the Surviving fraction is recorded as 1. Consider `Cc1ccc(F)c2[nH]cc(CC(=O)O)c12`, for which the Surviving fraction is reported as 1.

Take `O=C(O)Cc1c[nH]c2cc(F)ccc12`: the Surviving fraction is 0.01. Consider `COc1ccc2[nH]cc(CC(=O)O)c2c1`, for which the Surviving fraction is on record as 0.2. Consider `COc1ccc2[nH]c(C)c(CC(=O)O)c2c1` [DESCHLOROBENZOYL INDOMETHACIN], for which the Surviving fraction is 0.04. `O=C(O)Cc1c[nH]c2c(F)cc(Cl)cc12`: the Surviving fraction was 1.

Take `Cc1ccc2[nH]cc(CC(=O)O)c2c1`: the Surviving fraction was 1. As to `O=C(O)Cc1c[nH]c2ccc(F)cc12`, the Surviving fraction is given as <1e-05. Regarding `O=C(O)Cc1c[nH]c2cc(Cl)cc(Cl)c12`, the Surviving fraction is listed as 1. Take `O=C(O)Cc1c[nH]c2ccc(OC(F)(F)F)cc12`: the Surviving fraction is 1.

As for `O=C(O)Cc1c[nH]c2cccc(Cl)c12`, the Surviving fraction was 1. `O=C(O)Cc1c[nH]c2c(Cl)cccc12`: the Surviving fraction is given as 4e-05.

Consider `Cc1cc(F)c2[nH]cc(CC(=O)O)c2c1`, for which the Surviving fraction is 1. Regarding `Cc1[nH]c2ccc(F)cc2c1CC(=O)O`, the Surviving fraction is 1. Same read-out and setting: the same measure for `Cn1cc(CC(=O)O)c2ccc(Cl)cc21`: 1.

For `O=C(O)Cc1c[nH]c2ccccc12` [INDOLE-3-ACETIC ACID], the Surviving fraction was 0.01. For `Cn1cc(CC(=O)O)c2ccccc21`, the Surviving fraction is reported as 0.01. As for `O=C(O)Cc1c[nH]c2cc(Cl)ccc12`, the Surviving fraction is <1e-05. Same read-out and setting: the same measure for `O=C(O)Cc1c[nH]c2cccc(F)c12`: 9e-05; for `O=C(O)Cc1c[nH]c2ccc(I)cc12`: 1; for `O=C(O)Cc1c[nH]c2ccc(-c3ccc(Cl)cc3)cc12`: 1.

Test system in the next experiment: not listed separately
The experiment is described as follows: Rate constant for oxidation by HRP (horseradish peroxidase) was determined.
On to `Cc1[nH]c2ccccc2c1CC(=O)O`, for which the Rate constant (k) is 435 Ie3 M-1 s-1.

In the case of `COc1ccc2[nH]c(C)c(CC(=O)O)c2c1` [DESCHLOROBENZOYL INDOMETHACIN], the Rate constant (k) was 1710 Ie3 M-1 s-1.

For the molecule `O=C(O)Cc1c[nH]c2ccc(-c3ccc(Cl)cc3)cc12`, the Rate constant (k) was 103 Ie3 M-1 s-1.

The test system of the next experiment is V79. As to the kind of experiment: Cytotoxicity against Chinese hamster lung fibroblasts (V79 cells) was determined by a clonogenic assay and colonies containing >50 cells were counted and surviving fractions (SF) calculated after 2 h incubation at 50 uM of prodrug. It counts as functional, Cricetulus griseus.
Take `O=C(O)Cc1c[nH]c2cc(Cl)ccc12`: the Surviving fraction was 0.00085.

The values are drawn from ChEMBL document CHEMBL1135317, “Halogenated indole-3-acetic acids as oxidatively activated prodrugs with potential for targeted cancer therapy” (2002).
